Source: patent publication US20170198005A1, “2'-DICHLORO AND 2'-FLUORO-2'-CHLORO NUCLEOSIDE ANALOGUES FOR HCV INFECTION” (IDENIX PHARMACEUTICALS LLC, priority 2013, published 2017)
Like-named read-outs stand apart in the source and are kept apart here.

Legend:
[1] = Cytotoxicity evaluation, CellTiter-Blue Cell Viability Assay; format: cell-based; details: human
Procedure: (§1) For cytotoxicity evaluation, Zluc cells were treated with compound as described herein, and cell viability was monitored using the CellTiter-Blue Cell Viability Assay (Promega) by adding 20 μL of the assay solution to each well. The plates were then incubated at 37° C./5% CO2 for at least 3 hours. Fluorescence was detected in plates using excitation and emission wavelengths of 531 and 595 nm, respectively, in a Victor^3 V 1420 multilabel counter (Perkin Elmer) and CC50 values were determined using Microsoft Excel and XLfit 5.2 software.

HCV genotype 1b replicon = assay: HCV replicon assay (luciferase reporter); format: cell-based; details: Zluc cells, 72 hours of incubation
Procedure: Huh-7-derived cell line (Zluc) that harbors an HCV genotype 1b replicon and a luciferase reporter gene was grown in Dulbecco's Modified Eagle Medium (DMEM) supplemented with 10% fetal bovine serum, 2 mM GlutaMAX, 1% MEM nonessential amino acids, 100 IU/mL penicillin, 100 μg/mL streptomycin, and 0.5 mg/mL Geneticin® (G418). For dose response testing the cells were seeded in 96-well plates at 7.5×10^3 cells per well in a volume of 50 μL, and incubated at 37° C./5% CO2. Drug solutions were made up freshly in Huh-7 media as 2× stocks. Ten additional 5-fold dilutions were prepared from these stocks in DMEM without G418. At least three hours after Zluc cells were seeded, drug treatment was initiated by adding 50 μL of drug dilutions to the plates in duplicate. Final concentrations of drug ranged from 100 μM to 0.0000512 μM. Cells were then incubated at 37° C./5% CO2. […] After 72 hours of incubation, the inhibition of HCV replication was measured by quantification of photons emitted after mono-oxygenation of 5′-fluoroluciferin to oxyfluoroluciferin by firefly luciferase. For this, media was removed from the plates via gentle tapping. Fifty microliters of ONE-glo luciferase assay reagent was added to each well. The plates were shaken gently for 3 min at room temperature and luminescence was measured on a Victor^3 V 1420 multilabel counter (Perkin Elmer) with a 1 second read time using a 700 nm cut-off filter. The EC50 values were calculated from dose response curves from the resulting best-fit equations determined by Microsoft Excel and XLfit 5.2 software.
Compounds presented in Table 1 below were assayed according to the replicon assay described herein.

[2] = system: Zluc cells (Huh-7-derived cell line); assay: Cytotoxicity evaluation, CellTiter-Blue Cell Viability Assay; format: cell-based; details: read-out: HCV Replicon CC50
Procedure: as §1

[3] = Pharmacokinetics of liver triphosphate following a single oral dose in CD-1 mice; format: in vivo; details: CD-1 male mice, single oral dose 10 mg/kg in PEG 200, liver triphosphate at 4, 12 and 24 hours, AUC given at 1 μmol/kg
Procedure: A single oral dose of test compound at 10 mg/kg in PEG 200 (dose volume 5 mL/kg) was administered to nine CD-1 male mice. Five untreated animals were used for the collection of control plasma and liver. Terminal plasma and liver samples were collected from three animals per time point at 4, 12 and 24 hours post dose. Liver specimens were collected from all animals immediately after the incision. Freezing forceps stored in liquid nitrogen were used to freeze the liver before excision.
Liver samples were analyzed for the active species nucleoside triphosphate by LC-MS/MS. The triphosphate levels were assayed by homogenizing (on ice) a known weight of mouse liver with 4× volume of 0.95 M trichloroacetic acid (TCA). Internal standard solution was added to the homogenate followed by neutralization with 20% ammonium hydroxide solution and addition of 500 μL 1% formic acid. The tissue samples were extracted by weak anion exchange solid phase extraction (SPE). Post extraction, the eluates were evaporated under nitrogen, followed by reconstitution before injection onto the LC-MS/MS system. […] The analyte was detected and quantified by tandem mass spectrometry in positive ion mode on an API4000 equipped with a Turbo Ionspray® interface.

[4] = molecular target: T1, HCV genotype 1b NS5B protein containing the S282T mutation (Hepatitis C virus genotype 1b, UniProt Q9WMX2, S2701T); assay: HCV polymerase enzyme assay, S282T mutant; format: biochemical
T1 construct: HCV genotype 1b NS5B protein were used to generate recombinant HCV polymerases (with a deletion of the 21 carboxy terminal amino acids); made in house
Source text: (§2) Test compounds in the form of nucleoside triphosphates were examined for inhibitory activity against purified HCV polymerase in a standard assay. Bacterial expression constructs encoding the approximately 65 kDa HCV genotype 1b NS5B protein were used to generate recombinant HCV polymerases (with a deletion of the 21 carboxy terminal amino acids). Both the wild-type genotype 1b protein and protein containing the S282T mutation were expressed and purified for use in the enzymatic activity assay.
(§3) The enzymatic activity assay measured the inhibitory effect of increasing concentrations of test compound on the incorporation of α-[^33P]-labeled nucleotide into trichloroacetic acid-precipitable material. Recombinant polymerase and synthetic RNA template were combined in reaction buffer containing ribonucleoside triphosphates, α-[^33P]-labeled nucleotide and eight concentrations of test compound in three-fold dilutions. Reactions were incubated for two hours at 30° C.
(§4) Reactions were terminated by the addition of ice-cold trichloroacetic acid and sodium pyrophosphate to promote precipitation of newly-synthesized ribonucleic acid. Precipitable material from the reactions was collected by filtration onto 96-well filter plates, washed extensively with water, and quantified by liquid scintillation.
(§5) The inhibitory activity of test compounds was determined by fitting results to dose-response curves using XLfit software.

[5] = molecular target: T2, wild-type HCV genotype 1b NS5B protein (HCV polymerase) (Hepatitis C virus genotype 1b, UniProt Q9WMX2); assay: HCV polymerase enzyme assay, wild-type; format: biochemical
T2 construct: HCV genotype 1b NS5B protein were used to generate recombinant HCV polymerases (with a deletion of the 21 carboxy terminal amino acids); made in house
Source text: as §2, §3, §4, §5

[6] = Zluc cells (Huh-7-derived HCV replicon cell line)
[7] = Zluc cells, read-out: HCV Replicon CC50

Row | Compound | CC50 [1, 6] [µM] | EC50 (HCV genotype 1b replicon; Hepatitis C virus, 72 h) [µM] | also measured
1 | CC(C)OC(=O)[C@H](C)N[P@](=O)(OCCSC(=O)C(C)(C)C)OC[C@H]1O[C@@H](n2ccc(N)nc2=O)[C@@](F)(Cl)[C@@H]1O (mixture of isomers) [102b (Diast. Mix)] | > 50 | > 10 | 
2 | CC(C)OC(=O)[C@@H](C)NP(=O)(OC[C@H]1C[C@@H](n2ccc(N)nc2=O)C(Cl)(Cl)[C@@H]1O)Oc1ccccc1 (mixture of isomers) [103a (Diast. Mix)] |  | 1 to 10 | CC50 [1, 7]: > 50 µM
3 | CC(C)OC(=O)[C@@H](C)NP(=O)(OC[C@H]1O[C@@H](n2cnc3c(=O)[nH]c(N)nc32)[C@@](F)(Cl)[C@@H]1O)Oc1ccccc1 (mixture of isomers) [147a (Diast. Mix)] |  | > 10 | CC50 [1, 7]: > 50 µM
4 | CC(C)OC(=O)[C@H](C)N[P@](=O)(OCCSC(=O)C(C)(C)C)OC[C@H]1O[C@@H](n2ccc(N)nc2=O)C(Cl)(Cl)[C@@H]1O (single isomer, unassigned) [101b (Diast. 1)] | > 50 | 1 to 10 | 
5 | CC(C)OC(=O)[C@H](C)N[P@](=O)(OCCSC(=O)C(C)(C)C)OC[C@H]1O[C@@H](n2ccc(N)nc2=O)C(Cl)(Cl)[C@@H]1O (single isomer, unassigned) [101b (Diast. 2)] |  |  | CC50 [2]: > 50 µM; EC50 (HCV genotype 1b replicon): 1 to 10 µM
6 | CC(C)OC(=O)[C@H](C)N[P@](=O)(OCCSC(=O)C(C)(C)C)OC[C@H]1O[C@@H](n2ccc(N)nc2=O)[C@@](F)(Cl)[C@@H]1O (single isomer, unassigned) [102b (Diast. 1)] | > 50 | > 10 | 
7 | CC(C)OC(=O)[C@H](C)N[P@](=O)(OCCSC(=O)C(C)(C)C)OC[C@H]1O[C@@H](n2ccc(N)nc2=O)[C@@](F)(Cl)[C@@H]1O (single isomer, unassigned) [102b (Diast. 2)] |  |  | CC50 [2]: > 50 µM; EC50 (HCV genotype 1b replicon): > 10 µM
8 | CC(C)OC(=O)[C@@H](C)NP(=O)(OC[C@H]1C[C@@H](n2ccc(N)nc2=O)C(Cl)(Cl)[C@@H]1O)Oc1ccccc1 (single isomer, unassigned) [103a (Diast. 1)] |  | > 10 | CC50 [1, 7]: > 50 µM
9 | CC(C)OC(=O)[C@@H](C)NP(=O)(OC[C@H]1C[C@@H](n2ccc(N)nc2=O)C(Cl)(Cl)[C@@H]1O)Oc1ccccc1 (single isomer, unassigned) [103a (Diast. 2)] |  |  | EC50 (HCV genotype 1b replicon): > 10 µM
10 | CC(C)OP1(=O)OC[C@H]2O[C@@H](n3ccc(N)nc3=O)C(Cl)(Cl)[C@@H]2O1 (single isomer, unassigned) [104 (Diast. 1)] | > 50 |  | EC50 (HCV genotype 1b replicon): 1 to 10 µM; Ms Liver TP AUC ([3]; listed as 104 Diast. 1, 10 mg/kg): ++++ (2000 < ++++)
11 | CC(C)OP1(=O)OC[C@H]2O[C@@H](n3ccc(N)nc3=O)C(Cl)(Cl)[C@@H]2O1 (single isomer, unassigned) [104 (Diast. 2)] |  |  | CC50 [2]: > 50 µM; EC50 (HCV genotype 1b replicon): > 10 µM; Ms Liver TP AUC ([3]; listed as 104 Diast. 2, 10 mg/kg): +++ (+++ ≦ 2000)
12 | CC(C)OC(=O)[C@H](C)NP(=O)(OCCSC(=O)C(C)(C)C)OC[C@H]1O[C@@H](n2cnc3c(N)ncnc32)C(Cl)(Cl)[C@@H]1O (single isomer, unassigned) [117b (Diast. 1)] | ≤ 50 | 0.25 to 1 | 
13 | CC(C)OC(=O)[C@H](C)NP(=O)(OCCSC(=O)C(C)(C)C)OC[C@H]1O[C@@H](n2cnc3c(N)ncnc32)C(Cl)(Cl)[C@@H]1O (single isomer, unassigned) [117b (Diast. 2)] |  |  | CC50 [2]: ≤ 50 µM; EC50 (HCV genotype 1b replicon): 0.25 to 1 µM
14 | Nc1ccn([C@@H]2O[C@H](CO)[C@@H](O)C2(Cl)Cl)c(=O)n1 [Compound 1001] | > 50 | > 10 | 
15 | O=c1ccn([C@@H]2O[C@H](CO)[C@@H](O)C2(Cl)Cl)c(=O)[nH]1 [Compound 1002] | > 50 | > 10 | 
16 | Nc1ccn([C@@H]2O[C@H](CO)[C@@H](O)[C@]2(F)Cl)c(=O)n1 [Compound 1004] | > 50 | 1 to 10 | 
17 | Nc1nc2c(ncn2[C@@H]2O[C@H](CO)[C@@H](O)[C@]2(F)Cl)c(=O)[nH]1 [Compound 1005] | > 50 | > 10 | 
18 | O=c1ccn([C@@H]2O[C@H](CO)[C@@H](O)[C@]2(F)Cl)c(=O)[nH]1 [Compound 1006] | > 50 | > 10 | 
19 | O=c1ccn([C@@H]2O[C@H](CO)[C@@H](O)[C@@]2(F)Cl)c(=O)[nH]1 [Compound 1007] | > 50 | > 10 | 
20 | Nc1ncnc2c1ncn2[C@@H]1O[C@H](CO)[C@@H](O)C1(Cl)Cl [Compound 1011] | > 50 | > 10 | 
21 | Nc1ccn([C@@H]2O[C@H](COP(=O)(O)OP(=O)(O)OP(=O)(O)O)[C@@H](O)C2(Cl)Cl)c(=O)n1 [Compound 2001] |  |  | IC50 [4]: 0.25 to 1 µM; IC50 [5]: < 0.25 µM
22 | O=c1ccn([C@@H]2O[C@H](COP(=O)(O)OP(=O)(O)OP(=O)(O)O)[C@@H](O)C2(Cl)Cl)c(=O)[nH]1 [Compound 2002] |  |  | IC50 [4]: 1 to 10 µM; IC50 [5]: < 0.25 µM
23 | Nc1nc2c(ncn2[C@@H]2O[C@H](COP(=O)(O)OP(=O)(O)OP(=O)(O)O)[C@@H](O)[C@]2(F)Cl)c(=O)[nH]1 [Compound 2003] |  |  | IC50 [4]: < 0.25 µM; IC50 [5]: < 0.25 µM
24 | O=c1ccn([C@@H]2O[C@H](COP(=O)(O)OP(=O)(O)OP(=O)(O)O)[C@@H](O)[C@]2(F)Cl)c(=O)[nH]1 [Compound 2004] |  |  | IC50 [4]: 1 to 10 µM; IC50 [5]: < 0.25 µM
25 | O=c1ccn([C@@H]2O[C@H](COP(=O)(O)OP(=O)(O)OP(=O)(O)O)[C@@H](O)[C@@]2(F)Cl)c(=O)[nH]1 [Compound 2005] |  |  | IC50 [4]: 1 to 10 µM; IC50 [5]: < 0.25 µM
26 | Nc1ncnc2c1ncn2[C@@H]1O[C@H](COP(=O)(O)OP(=O)(O)OP(=O)(O)O)[C@@H](O)C1(Cl)Cl [Compound 2011] |  |  | IC50 [5]: 0.25 to 1 µM
